pEC50: −log10 of the molar value. Where “and” joins values, the source holds several entries; their conditions need not be identical. Identical values can stand only once.
Biological target: T1, human GPBAR1 (Homo sapiens, UniProt Q8TDU6)
T1 construct: expressed in transfected cells; host or cells: HEK-293T
T1 sequence (Q8TDU6 1-330): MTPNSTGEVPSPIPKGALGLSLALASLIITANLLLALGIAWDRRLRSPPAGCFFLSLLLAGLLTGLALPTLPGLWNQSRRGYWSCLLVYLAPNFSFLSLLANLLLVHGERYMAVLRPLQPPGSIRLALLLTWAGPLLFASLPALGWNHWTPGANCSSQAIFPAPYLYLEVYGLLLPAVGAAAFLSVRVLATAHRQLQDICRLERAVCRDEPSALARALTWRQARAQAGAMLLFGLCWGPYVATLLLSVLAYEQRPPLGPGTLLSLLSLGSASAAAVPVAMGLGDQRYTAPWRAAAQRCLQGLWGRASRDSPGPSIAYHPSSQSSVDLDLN
Assay: GPBAR1 mediated transactivation, CRE-luciferase reporter in transfected HEK-293T cells
Type: cell-based
Experimental: Selected compounds were tested in vitro on FXR and TGR5/GPBAR1 receptors (Table 1) using a whole cell model transfected with a reporter genes. The activity was evaluated in comparison with chenodeoxycholic acid (CDCA) and TLCA.
CDCA is a primary bile acid that functions as an endogenous ligand for FXR, while TLCA is a physiological ligand for TGR5/GPBAR1. In this assay, HepG2 cells (a liver-derived cell line) were cultured at 37° C. in minimum essential medium with Earl's salts containing 10% fetal bovine serum (FBS), 1% L-glutamine, and 1% penicillin/streptomycin. HEK-293T cells were cultured at 37° C. in D-MEM containing 10% fetal bovine serum (FBS), 1% L-glutamine, and 1% penicillin/streptomycin. The transfection experiments were performed using Fugene HD according to manufactured specifications. Cells were plated in a 24-well plate at 5×10^4 cells/well. For FXR mediated transactivation, HepG2 cells were transfected with 100 ng of pSG5-FXR, 100 ng of pSG5-RXR, 100 ng of pGL4.70 a vector encoding the human Renilla gene and 250 ng of the reporter vector p(hsp27)-TK-LUC containing the FXR response element IR1 cloned from the promoter of heat shock protein 27 (hsp27).
For GPBAR1 mediated transactivation, HEK-293T cells were transfected with 200 ng of pGL4.29, a reporter vector containing a cAMP response element (CRE) that drives the transcription of the luciferase reporter gene luc2P, with 100 ng of pCMVSPORT6-human GPBAR1, and with 100 ng of pGL4.70 a vector encoding the human Renilla gene. In control experiments HEK-293T cells were transfected only with vectors pGL4.29 and pGL4.70 to exclude any possibility that compounds could activate the CRE in a GPBAR1 independent manner. At 24 h post-transfection, cells were stimulated for 18 h with 10 μM TLCA as a control agent or putative GPBAR1 agonists as the same concentration. After treatments, cells were lysed in 100 μL of lysis buffer (25 mM Tris-phosphate, pH 7.8; 2 mM DTT; 10% glycerol; 1% Triton X-100), and 20 μL of cellular lysate was assayed for luciferase activity using the luciferase assay system. Luminescence was measured using Glomax 20/20 luminometer. Luciferase activities were normalized against Renilla activities. Antagonism against FXR of GPBAR1/TGR5 was measured as percent of activity in transactivation assay suing activity of TLCA as example of agonism.
The data on the activity of certain compounds of the invention on TGR5/GPBAR1 are described in the following table 1. In this table, activities for compounds of the invention on GPBAR1 was compared to those of the reference compound TLCA. For % of activity, each compound was tested at the concentration of 10 microM and transactivation activity of TLCA on CRE (i.e. TGR5/GPBAR1) was considered equal to 100%. For selectivity toward FXR, activity was assessed in HepG2 cells transfected with an FXR responsive element (IR1) cloned upstream to the luciferase gene. For calculation of efficacy data, maximal transactivation of IR1 caused by each compound (10 μM) was compared to maximal transactivation caused by CDCA (10 μM). GPBAR1/FXR selectivity calculated as ratio between % of activity toward GPBAR1 and % of activity toward FXR. Each experiment was conducted in triplicate.

## CC[C@]1(O)C[C@H]2[C@@H]3CC[C@H]([C@H](C)CC#N)[C@@]3(C)CC[C@@H]2[C@@]2(C)CC[C@@H](O)C[C@@H]12 [PBT110B, 3α,6α-dihydroxy-6β-ethyl-24-nor-5β-cholan-23-nitrile]
HEK-293T CRE-luciferase transactivation
  pEC50: 6.52
Compound at 10 microM, HEK-293T, TLCA = 100%, triplicate
  GPBAR1 (% of activity in comparison to 10 μM TLCA): 101.2% and 101.2 ± 4.1%
Ratio between % of activity toward GPBAR1 and % of activity toward FXR
  GPBAR1/FXR selectivity: 8.2
